Results as given in US11766470B2, “Manufacture, formulation and dosing of apraglutide” (VectivBio AG, priority 2020, dated 2023).
Values joined by “and” are separate entries in the source; they are usually repeats but may differ in a detail not shown here. Identical values can stand only once. Square brackets hold non-standard residues; d marks the D form. Peptide text beside a SMILES is read from it. ξ: configuration not given here. Ile(3ξ) = CCC(C)[C@H](N)C(=O)O; Thr(3ξ) = CC(O)[C@H](N)C(=O)O; Nle = CCCC[C@H](N)C(=O)O

Test system: patients with SBS-IF or SBS-II
Assay: Phase 2 open-label metabolic balance trial in SBS-IF and SBS-II patients (Example 6): 72-hour metabolic balance, body composition, plasma L-citrulline
Type: in vivo, human
Conditions: 5 mg once weekly
Protocol: Treatment with glucagon-like peptide-2 (GLP-2) analogs promotes intestinal adaptation in patients with short bowel syndrome (SBS). Apraglutide is a novel long-acting GLP-2 analog designed to enable once weekly dosing. This Phase 2 trial investigated the safety and efficacy of once weekly 5 mg apraglutide in patients with SBS intestinal failure (SBS-IF) and SBS intestinal insufficiency (SBS-II). In this open-label trial, 8 adult patients with SBS-IF (n=4) or SBS-II (n=4) and a fecal wet weight of >1500 g/day were treated with once weekly subcutaneous 5 mg apraglutide for 4 weeks. Safety was the primary endpoint. As secondary endpoints changes were examined from baseline in intestinal absorption of wet weight, energy (measured by bomb calorimetry) and electrolytes as well as fecal wet weight and urine production using 72-hour metabolic balance studies. Common treatment-related adverse events were consistent with the physiological effect of GLP-2 and included reduced stoma output (n=6), stoma complication (n=6), nausea (n=5), flatulence (n=4), polyuria (n=3) and abdominal pain (n=3).
A total of nine adult patients (aged ≥18 to ≤80 years) with SBS were screened, eight of whom enrolled in the trial: four patients had SBS-II and four patients had SBS-IF. Both subgroups of patients were included to investigate the safety and efficacy of apraglutide across the disease spectrum. Patient eligibility was assessed during a screening visit. Main inclusion criteria were SBS secondary to surgical resection of the small intestine with or without colon; at least six months since last surgical bowel resection; and a severe degree of malabsorption, defined as a fecal wet weight output≥1,500 g/day and a urine volume production<2000 mL/day.
Fecal output and urine volume production were confirmed during baseline examinations. Patients were excluded if they had clinical signs of active inflammatory bowel disease, a history of cancer within five years or an inadequate hepatic-, kidney- or heart function.
The contents of the buckets were weighed, processed intro dry matter, and analyzed as previously described: energy by bomb calorimetry, nitrogen by Kjeldahl's method, lipid by a modified Van de Kamer titration technique, carbohydrate by Englyst's method, sodium and potassium by flame photometry and calcium and magnesium by atomic absorption spectrometry. A 24-hour average was calculated based on the three 24-hour periods. Absolute changes were calculated as the difference between the baseline and the post-treatment value. Relative changes were calculated as absolute changes divided by baseline values multiplied by 100.
Body weight was measured using a levelled platform scale. Body composition was measured by dual-energy x-ray absorptiometry (Norland XR-36 DXA densitometer, Norland, Ford Atkinson, WI, USA) at baseline and post-treatment.
Blood samples for analysis of the plasma concentration of apraglutide and plasma concentration of fasting L-citrulline, a marker of enterocyte mass, were collected at baseline, during first and second injection (pre-dose and at sequential timepoints), four days after first injection and at the end of treatment. Blood sampling for apraglutide pharmacokinetics was also performed after the fourth and last injection covering 96 hours. […] Blood samples for anti-apraglutide antibodies were collected at baseline, at the end of treatment and at the 4-6 weeks follow-up visit. All eight patients tested negative for anti-apraglutide antibodies at baseline.
The primary endpoint of this trial was safety. Secondary endpoints were absolute and relative changes from baseline in dietary intake, fecal excretion and absorption of wet weight, energy, macronutrients and electrolytes, urine production, urine electrolyte excretion, body weight, body composition, bone mineral content, plasma L-citrulline as well as pharmacokinetic profiles. […]

[1] = comparison with other GLP-2 analogs

CCCC[C@H](NC(=O)[C@H](CCC(=O)O)NC(=O)[C@H](CC(=O)O)NC(=O)[C@H](CO)NC(=O)[C@H](Cc1ccccc1)NC(=O)[C@H](CO)NC(=O)CNC(=O)[C@H](CC(=O)O)NC(=O)CNC(=O)[C@@H](N)Cc1c[nH]cn1)C(=O)N[C@H](Cc1ccccc1)C(=O)N[C@H](C(=O)N[C@H](C(=O)N[C@@H](CC(C)C)C(=O)N[C@@H](CC(=O)O)C(=O)N[C@@H](CC(C)C)C(=O)N[C@@H](CC(C)C)C(=O)N[C@@H](C)C(=O)N[C@@H](C)C(=O)N[C@@H](CCCNC(=N)N)C(=O)N[C@@H](CC(=O)O)C(=O)N[C@@H](Cc1ccccc1)C(=O)N[C@H](C(=O)N[C@@H](CC(N)=O)C(=O)N[C@@H](Cc1c[nH]c2ccccc12)C(=O)N[C@@H](CC(C)C)C(=O)N[C@H](C(=O)N[C@@H](CCC(N)=O)C(=O)N[C@H](C(=O)N[C@@H](CCCCN)C(=O)N[C@H](C(=O)N[C@H](C(=O)N[C@@H](CC(=O)O)C(N)=O)C(C)O)C(C)CC)C(C)O)C(C)CC)C(C)CC)C(C)CC)C(C)O (stereo partly drawn) [apraglutide, L-histidyl-glycyl-L-aspartyl-glycyl-L-seryl-L-phenylalanyl-L-seryl-L-aspartyl-L-glutamyl-L-norleucyl-D-phenylalanyl-L-threonyl-Lisoleucyl-L-leucyl-L-aspartyl-L-leucyl-L-leucyl-L-alanyl-L-alanyl-L-arginyl-L-aspartyl-L-phenylalanyl-L-isoleucyl-L-asparaginyl-Ltryptophanyl-L-leucyl-L-isoleucyl-L-glutaminyl-L-threonyl-L-lysyl-L-isoleucyl-L-threonyl-Laspartic acid amide] (H-HGDGSFSDE[Nle][dF][Thr(3ξ)][Ile(3ξ)]LDLLAARDF[Ile(3ξ)]NWL[Ile(3ξ)]Q[Thr(3ξ)]K[Ile(3ξ)][Thr(3ξ)]D-NH2)
Body weight increase from baseline (4 weeks): 1.8 kg
Bone mineral content change from baseline (4 weeks): -20 g
Calcium, absorption, change from baseline (4 weeks): 11 (−13 to 35); mmol/day
Calcium, dietary intake, change from baseline (4 weeks): −2 (−5 to 2); mmol/day
Calcium, fecal output, change from baseline (4 weeks): −13 (−36 to 11); mmol/day
Calcium, urine excretion, change from baseline (4 weeks): 0 (−1 to 1) mmol/day
Carbohydrate, absorption, change from baseline (4 weeks): 518 (112 to 924); kJ/day
Carbohydrate, dietary intake, change from baseline (4 weeks): 154 (−268 to 575); kJ/day
Carbohydrate, fecal output, change from baseline (4 weeks): −365 (−772 to 43); kJ/day
Energy, dietary intake, change from baseline (4 weeks): 154 (−1,006 to 1,314); kJ/day
Fat mass decrease from baseline (4 weeks): 1.1 kg
Lean body mass increase from baseline (4 weeks): 1.7 kg
Lipid, absorption, change from baseline (4 weeks): 376 (61 to 691); kJ/day
Lipid, dietary intake, change from baseline (4 weeks): 67 (−638 to 771); kJ/day
Lipid, fecal output, change from baseline (4 weeks): −309 (−969 to 351) kJ/day
Magnesium, absorption, change from baseline (4 weeks): 0 (−9 to 9); mmol/day
Magnesium, dietary intake, change from baseline (4 weeks): 1 (−2 to 3); mmol/day
Magnesium, fecal output, change from baseline (4 weeks): 0 (−9 to 9); mmol/day
Magnesium, urine excretion, change from baseline (4 weeks): 1 (−1 to 2), mmol/day
Plasma L-citrulline, absolute increase from baseline (4 weeks): 15.2 µmol/L
Plasma L-citrulline, relative increase from baseline (4 weeks): 66%
Potassium, absorption, change from baseline (4 weeks): 18 (4 to 32; p < 0.05) mmol/day and 18 (4 to 32); mmol/day
Potassium, dietary intake, change from baseline (4 weeks): 4 (−5 to 12); mmol/day
Potassium, fecal output, change from baseline (4 weeks): −15 (−32 to 3); mmol/day
Potassium, urine excretion, change from baseline (4 weeks): 13 (6 to 20); mmol/day
Protein, absorption, change from baseline (4 weeks): 104 (−205 to 412); kJ/day
Protein, dietary intake, change from baseline (4 weeks): −41 (−274 to 191); kJ/day
Protein, fecal output, change from baseline (4 weeks): −145 (−497 to 207); kJ/day
Sodium, absorption, change from baseline (4 weeks): 38 (3 to 74; p < 0.05) mmol/day and 38 (3 to 74); mmol/day
Sodium, dietary intake, change from baseline (4 weeks): −5 (−30 to 21); mmol/day
Sodium, fecal output, change from baseline (4 weeks): −43 (−92 to 6); mmol/day
Sodium, urine excretion, change from baseline (4 weeks): 27 (5 to 49); mmol/day
Wet weight, absorption, change from baseline (4 weeks): 741 (194 to 1287; p < 0.05) g/day and 741 (194 to 1,287); g/day
Wet weight, dietary intake, change from baseline (4 weeks): 61 (−84.0 to 207); g/day
Wet weight, fecal output, change from baseline (4 weeks): −680 (−1200 to −159; p < 0.05) ^ g/day and −680 (−1,200 to −159); g/day
Wet weight, urine (urine production), change from baseline (4 weeks): 560 (72 to 1048; p < 0.05) g/day and 560 (72 to 1,048); g/day
Energy, absorption, change from baseline (4 weeks, bomb calorimetry): 1,095 kJ/day
Potassium, absorption, change from baseline (4 weeks, listed as Apraglutide): 18 mmol/day
Potassium, urine excretion, change from baseline (4 weeks, listed as Apraglutide): 13 mmol/day
Sodium, absorption, change from baseline (4 weeks, listed as Apraglutide): 38 mmol/day
Sodium, urine excretion, change from baseline (4 weeks, listed as Apraglutide): 27 mmol/day
Wet weight, absorption, change from baseline (4 weeks, listed as Apraglutide): 741 g/day
Wet weight, fecal output, change from baseline (4 weeks, listed as Apraglutide): -680 g/day
Wet weight, urine (urine production), change from baseline (4 weeks, listed as Apraglutide): 560 g/day
Change from baseline increase in urinary input [1]: 140.1%
Change in baseline in energy absorption [1]: 1,074 kj/day
Change in baseline in wet weight absorption [1]: 760.4 g/day
